This note sets out measurements from ChEMBL document CHEMBL5465560, “Selectivity Literature for EUbOPEN Chemogenomic Library” (2024).

Assay [1] addresses T1, Mitogen-activated protein kinase kinase kinase 5 (Homo sapiens) (UniProt Q99683).
T1 sequence (whole entry): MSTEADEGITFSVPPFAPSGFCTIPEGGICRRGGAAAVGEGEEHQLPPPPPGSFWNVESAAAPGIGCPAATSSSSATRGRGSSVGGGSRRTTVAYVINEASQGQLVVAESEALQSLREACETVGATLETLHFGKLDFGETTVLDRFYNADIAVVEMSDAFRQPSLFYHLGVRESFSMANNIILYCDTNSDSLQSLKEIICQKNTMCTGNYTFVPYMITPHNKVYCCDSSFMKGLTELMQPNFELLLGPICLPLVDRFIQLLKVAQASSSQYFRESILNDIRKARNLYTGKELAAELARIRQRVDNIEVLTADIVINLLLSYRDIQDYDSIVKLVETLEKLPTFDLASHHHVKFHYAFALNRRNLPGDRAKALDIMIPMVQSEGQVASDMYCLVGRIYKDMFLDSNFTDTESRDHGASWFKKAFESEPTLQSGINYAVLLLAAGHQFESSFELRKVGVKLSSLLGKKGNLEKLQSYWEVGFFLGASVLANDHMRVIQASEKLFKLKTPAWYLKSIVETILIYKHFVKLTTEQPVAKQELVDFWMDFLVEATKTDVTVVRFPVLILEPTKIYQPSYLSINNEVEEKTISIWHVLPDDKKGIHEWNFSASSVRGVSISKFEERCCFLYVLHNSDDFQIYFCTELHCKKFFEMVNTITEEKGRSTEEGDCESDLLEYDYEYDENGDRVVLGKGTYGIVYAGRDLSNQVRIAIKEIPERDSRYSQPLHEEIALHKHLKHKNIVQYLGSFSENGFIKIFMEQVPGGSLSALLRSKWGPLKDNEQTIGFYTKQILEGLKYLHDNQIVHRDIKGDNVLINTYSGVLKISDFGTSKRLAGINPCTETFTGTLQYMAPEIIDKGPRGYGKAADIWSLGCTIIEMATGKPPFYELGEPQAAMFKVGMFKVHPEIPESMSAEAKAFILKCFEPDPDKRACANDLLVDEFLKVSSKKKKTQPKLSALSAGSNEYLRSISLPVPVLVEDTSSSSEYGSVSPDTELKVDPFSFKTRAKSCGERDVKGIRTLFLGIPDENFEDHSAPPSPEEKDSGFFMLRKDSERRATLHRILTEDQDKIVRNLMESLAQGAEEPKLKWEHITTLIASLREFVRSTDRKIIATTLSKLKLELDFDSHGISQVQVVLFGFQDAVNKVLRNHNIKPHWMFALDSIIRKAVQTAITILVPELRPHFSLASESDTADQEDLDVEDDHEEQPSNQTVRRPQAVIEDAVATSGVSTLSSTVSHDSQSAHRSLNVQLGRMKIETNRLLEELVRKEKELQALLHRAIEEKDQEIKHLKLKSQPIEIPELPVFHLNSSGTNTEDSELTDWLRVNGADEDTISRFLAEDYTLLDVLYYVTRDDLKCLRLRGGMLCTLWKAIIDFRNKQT
The following applies: at 10 µM.

For assay [2], the target named is Lethal(3)malignant brain tumor-like protein 1 (Homo sapiens) (UniProt Q9Y468). Put plainly: Selectivity interaction (Transferase panel (protein, RNA, and DNA methyltransferases. and EP300 (acetyltransferase))) EUB0000270b L3MBTL. Conditions: at 1 µM.
Sequence of Lethal(3)malignant brain tumor-like protein 1 (Homo sapiens) (Q9Y468 whole entry, canonical isoform): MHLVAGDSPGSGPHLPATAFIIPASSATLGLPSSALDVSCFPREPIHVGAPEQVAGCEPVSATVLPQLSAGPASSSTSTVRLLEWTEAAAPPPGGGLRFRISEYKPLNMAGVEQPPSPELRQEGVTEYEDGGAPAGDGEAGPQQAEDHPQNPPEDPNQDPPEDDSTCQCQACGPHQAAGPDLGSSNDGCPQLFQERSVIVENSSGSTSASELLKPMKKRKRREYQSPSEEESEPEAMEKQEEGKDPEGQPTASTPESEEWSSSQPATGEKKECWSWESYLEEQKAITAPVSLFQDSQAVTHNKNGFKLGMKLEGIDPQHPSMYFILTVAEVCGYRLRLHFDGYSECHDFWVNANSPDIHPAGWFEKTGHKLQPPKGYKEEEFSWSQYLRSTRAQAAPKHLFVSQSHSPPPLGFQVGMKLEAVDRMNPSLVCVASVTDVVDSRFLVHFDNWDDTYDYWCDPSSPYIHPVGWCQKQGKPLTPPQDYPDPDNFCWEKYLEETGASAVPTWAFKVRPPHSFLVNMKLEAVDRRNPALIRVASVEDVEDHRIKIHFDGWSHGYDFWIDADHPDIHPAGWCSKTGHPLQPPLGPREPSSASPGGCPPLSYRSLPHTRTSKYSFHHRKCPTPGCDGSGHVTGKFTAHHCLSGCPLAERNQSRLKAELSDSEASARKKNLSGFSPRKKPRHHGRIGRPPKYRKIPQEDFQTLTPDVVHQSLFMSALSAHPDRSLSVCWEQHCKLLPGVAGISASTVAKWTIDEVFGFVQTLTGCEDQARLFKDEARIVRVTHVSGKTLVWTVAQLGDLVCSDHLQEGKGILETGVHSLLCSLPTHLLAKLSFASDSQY
The target in assay [3] is Phosphorylase b kinase gamma catalytic chain, skeletal muscle/heart isoform (Homo sapiens) (UniProt Q16816). Description: Selectivity interaction (KinomeScan (DiscoverX)) EUB0000607a PHKG1. Conditions: at 10 µM.
Assay [4] addresses Serine/threonine-protein kinase PLK3 (Homo sapiens, UniProt Q9H4B4). Description: Selectivity interaction (SelectScreen profiling (Invitrogen)) EUB0000607a PLK3. Conditions: at 2 µM.
Assay [5] addresses T2, EKC/KEOPS complex subunit TP53RK (Homo sapiens) (UniProt Q96S44).
T2 sequence (whole entry): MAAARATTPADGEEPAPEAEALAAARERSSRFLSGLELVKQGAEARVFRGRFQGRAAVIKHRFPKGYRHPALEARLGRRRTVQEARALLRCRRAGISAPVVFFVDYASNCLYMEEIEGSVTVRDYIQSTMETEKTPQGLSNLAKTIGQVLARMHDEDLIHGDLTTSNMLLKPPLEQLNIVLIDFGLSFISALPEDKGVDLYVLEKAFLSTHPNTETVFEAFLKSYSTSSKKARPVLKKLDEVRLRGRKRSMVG
Put plainly: Selectivity interaction (ActivX KiNativ screen (kinase selectivity in THP-1 cell lysates)) EUB0000639a TP53RK. Conditions: lysate. It counts as subcellular.

Assay [6] addresses Myosin-IIIa (Homo sapiens) (UniProt Q8NEV4). Description: Selectivity interaction (KinomeScan (DiscoverX)) EUB0000595a MYO3A. Conditions: at 10 µM.
Assay [7] has as its target 5'-AMP-activated protein kinase catalytic subunit alpha-1 (Homo sapiens, UniProt Q13131). Description: Selectivity interaction (Kinase panel (KiNativ target engagement assay in Jurkat cells)) EUB0001635a PRKAA1. It counts as cell-based. The following applies: Selectivity number of off-targets 0.0, Selectivity number of targets 233.0, Source Knowledge https://www.sciencedirect.com/science/article/pii/S2451945619300674?via%3Dihub, at 1 µM.

In assay [8] the target is Receptor tyrosine-protein kinase erbB-3 (Homo sapiens) (UniProt P21860). Description: Selectivity interaction (KinomeScan (DiscoverX)) EUB0000618a ERBB3. The following applies: at 10 µM.
Sequence of Receptor tyrosine-protein kinase erbB-3 (Homo sapiens) (P21860 whole entry): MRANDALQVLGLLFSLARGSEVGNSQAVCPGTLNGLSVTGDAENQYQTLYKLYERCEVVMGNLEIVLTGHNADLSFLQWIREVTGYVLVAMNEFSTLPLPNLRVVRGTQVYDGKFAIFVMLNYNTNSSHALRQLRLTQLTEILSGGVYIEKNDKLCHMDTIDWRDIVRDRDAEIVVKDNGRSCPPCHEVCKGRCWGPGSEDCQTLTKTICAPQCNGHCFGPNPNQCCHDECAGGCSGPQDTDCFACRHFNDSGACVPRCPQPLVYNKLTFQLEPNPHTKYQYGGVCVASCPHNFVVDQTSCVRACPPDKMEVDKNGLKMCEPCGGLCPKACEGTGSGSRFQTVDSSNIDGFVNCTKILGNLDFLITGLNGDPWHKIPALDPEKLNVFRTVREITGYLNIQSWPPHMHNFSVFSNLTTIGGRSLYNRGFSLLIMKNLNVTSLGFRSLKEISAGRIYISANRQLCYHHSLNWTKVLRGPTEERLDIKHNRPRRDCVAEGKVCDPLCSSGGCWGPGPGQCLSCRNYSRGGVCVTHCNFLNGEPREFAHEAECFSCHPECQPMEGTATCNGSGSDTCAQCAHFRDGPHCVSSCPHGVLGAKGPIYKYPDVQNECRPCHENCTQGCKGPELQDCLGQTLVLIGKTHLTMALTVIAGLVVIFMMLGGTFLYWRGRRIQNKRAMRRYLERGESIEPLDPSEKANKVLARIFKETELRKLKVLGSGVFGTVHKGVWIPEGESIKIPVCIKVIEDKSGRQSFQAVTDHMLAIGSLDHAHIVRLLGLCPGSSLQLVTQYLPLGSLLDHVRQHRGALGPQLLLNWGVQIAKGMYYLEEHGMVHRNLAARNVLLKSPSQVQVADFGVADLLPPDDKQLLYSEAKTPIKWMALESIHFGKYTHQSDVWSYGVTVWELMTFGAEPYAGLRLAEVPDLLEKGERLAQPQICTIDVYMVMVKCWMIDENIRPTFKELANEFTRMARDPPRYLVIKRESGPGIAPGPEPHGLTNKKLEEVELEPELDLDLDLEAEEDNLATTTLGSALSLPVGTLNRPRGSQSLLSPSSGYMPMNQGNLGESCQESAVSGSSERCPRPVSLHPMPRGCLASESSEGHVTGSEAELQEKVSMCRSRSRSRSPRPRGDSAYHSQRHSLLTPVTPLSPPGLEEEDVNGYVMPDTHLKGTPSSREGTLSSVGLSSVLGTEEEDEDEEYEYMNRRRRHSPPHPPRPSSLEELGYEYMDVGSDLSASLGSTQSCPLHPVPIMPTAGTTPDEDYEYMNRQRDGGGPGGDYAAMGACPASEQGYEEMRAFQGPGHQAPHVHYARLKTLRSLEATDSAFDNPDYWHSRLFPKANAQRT

Sequence of Myosin-IIIa (Homo sapiens) (Q8NEV4 whole entry): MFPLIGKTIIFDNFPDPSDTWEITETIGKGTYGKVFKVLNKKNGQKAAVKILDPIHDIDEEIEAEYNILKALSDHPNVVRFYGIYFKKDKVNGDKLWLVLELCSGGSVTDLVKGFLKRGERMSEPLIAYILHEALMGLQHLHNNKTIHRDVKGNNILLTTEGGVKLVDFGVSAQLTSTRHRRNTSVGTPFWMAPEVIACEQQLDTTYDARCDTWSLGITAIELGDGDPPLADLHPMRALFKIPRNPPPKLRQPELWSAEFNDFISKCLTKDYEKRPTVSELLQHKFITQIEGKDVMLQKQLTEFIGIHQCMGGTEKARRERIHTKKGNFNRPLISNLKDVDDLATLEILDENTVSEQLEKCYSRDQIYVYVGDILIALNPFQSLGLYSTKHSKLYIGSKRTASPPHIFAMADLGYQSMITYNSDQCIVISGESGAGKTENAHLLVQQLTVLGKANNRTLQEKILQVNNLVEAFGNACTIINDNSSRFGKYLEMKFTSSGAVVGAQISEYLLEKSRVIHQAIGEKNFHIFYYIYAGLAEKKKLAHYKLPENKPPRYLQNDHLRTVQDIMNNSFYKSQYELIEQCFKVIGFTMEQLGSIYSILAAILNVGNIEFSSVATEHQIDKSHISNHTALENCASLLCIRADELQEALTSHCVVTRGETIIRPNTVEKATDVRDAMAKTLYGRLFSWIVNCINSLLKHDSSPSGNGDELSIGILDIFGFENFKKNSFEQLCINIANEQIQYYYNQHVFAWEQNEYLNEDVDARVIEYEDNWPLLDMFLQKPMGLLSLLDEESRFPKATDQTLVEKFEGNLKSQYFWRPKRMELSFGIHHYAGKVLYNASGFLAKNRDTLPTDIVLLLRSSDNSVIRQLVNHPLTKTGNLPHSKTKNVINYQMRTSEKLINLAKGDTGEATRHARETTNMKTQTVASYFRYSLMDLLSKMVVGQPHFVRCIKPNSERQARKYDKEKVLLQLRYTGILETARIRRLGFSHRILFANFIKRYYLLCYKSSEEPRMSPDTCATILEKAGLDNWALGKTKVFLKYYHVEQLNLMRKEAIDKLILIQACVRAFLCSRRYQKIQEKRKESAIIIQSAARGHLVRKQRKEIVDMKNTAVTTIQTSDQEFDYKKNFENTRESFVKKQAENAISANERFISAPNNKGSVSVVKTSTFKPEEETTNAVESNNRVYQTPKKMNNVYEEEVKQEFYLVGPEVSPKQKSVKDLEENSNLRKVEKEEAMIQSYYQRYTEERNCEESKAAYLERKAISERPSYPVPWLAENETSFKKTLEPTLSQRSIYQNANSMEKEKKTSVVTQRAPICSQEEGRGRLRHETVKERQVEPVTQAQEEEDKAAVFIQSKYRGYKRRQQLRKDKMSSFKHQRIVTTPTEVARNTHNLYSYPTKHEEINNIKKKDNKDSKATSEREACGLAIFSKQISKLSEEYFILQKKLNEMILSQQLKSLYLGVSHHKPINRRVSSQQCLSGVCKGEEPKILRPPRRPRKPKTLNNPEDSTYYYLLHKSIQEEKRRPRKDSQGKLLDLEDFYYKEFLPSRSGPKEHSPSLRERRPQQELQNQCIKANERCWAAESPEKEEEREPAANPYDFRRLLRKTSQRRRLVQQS
Sequence of 5'-AMP-activated protein kinase catalytic subunit alpha-1 (Q13131 whole entry, looked up): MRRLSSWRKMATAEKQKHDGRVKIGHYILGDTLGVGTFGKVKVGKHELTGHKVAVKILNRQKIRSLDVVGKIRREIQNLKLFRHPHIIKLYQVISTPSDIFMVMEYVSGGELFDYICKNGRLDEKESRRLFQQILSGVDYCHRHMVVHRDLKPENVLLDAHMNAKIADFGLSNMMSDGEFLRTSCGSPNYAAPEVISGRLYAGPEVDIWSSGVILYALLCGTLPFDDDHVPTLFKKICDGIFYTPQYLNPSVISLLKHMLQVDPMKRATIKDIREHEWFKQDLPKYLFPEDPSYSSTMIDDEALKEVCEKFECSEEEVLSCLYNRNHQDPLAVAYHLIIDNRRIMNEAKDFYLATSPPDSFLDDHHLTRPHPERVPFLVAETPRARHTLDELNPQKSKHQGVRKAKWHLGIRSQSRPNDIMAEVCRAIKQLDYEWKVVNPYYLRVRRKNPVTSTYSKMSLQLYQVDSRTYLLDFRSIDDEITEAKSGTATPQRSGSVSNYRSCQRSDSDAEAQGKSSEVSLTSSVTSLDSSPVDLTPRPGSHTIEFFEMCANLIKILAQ
Sequence of Serine/threonine-protein kinase PLK3 (Q9H4B4 whole entry, looked up): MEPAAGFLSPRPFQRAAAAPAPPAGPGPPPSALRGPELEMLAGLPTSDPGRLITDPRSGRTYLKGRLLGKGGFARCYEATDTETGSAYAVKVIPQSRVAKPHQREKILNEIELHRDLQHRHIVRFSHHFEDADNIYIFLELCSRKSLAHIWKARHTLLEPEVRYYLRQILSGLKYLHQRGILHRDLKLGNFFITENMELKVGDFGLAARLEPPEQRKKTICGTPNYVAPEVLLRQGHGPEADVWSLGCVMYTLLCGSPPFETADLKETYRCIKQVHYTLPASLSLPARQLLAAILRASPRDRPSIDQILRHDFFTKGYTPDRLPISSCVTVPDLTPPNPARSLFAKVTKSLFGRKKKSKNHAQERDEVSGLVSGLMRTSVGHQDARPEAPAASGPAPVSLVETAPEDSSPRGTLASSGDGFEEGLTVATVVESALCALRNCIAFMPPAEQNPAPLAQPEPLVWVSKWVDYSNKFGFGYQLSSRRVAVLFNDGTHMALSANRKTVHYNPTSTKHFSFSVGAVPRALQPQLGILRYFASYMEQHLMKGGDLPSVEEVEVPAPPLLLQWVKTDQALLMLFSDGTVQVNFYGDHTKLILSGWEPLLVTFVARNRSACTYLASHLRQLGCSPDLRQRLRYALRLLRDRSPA

Compound `Cc1cc([C@@H](C)Nc2ccccc2C(=O)O)c2nc(N3CCOCC3)cc(=O)n2c1` [AZD-6482] gave a % of control in assay [1] of 100%. `Cc1cc(CN)cc(C)c1-c1ncn(C)c1-c1cncn1C` showed a % activity in assay [2] of more than 90%.

In assay [3], `CNC(=O)Nc1ccc(-c2nc(N3CC4CCC(C3)O4)c3cnn(C4CCC5(CC4)OCCO5)c3n2)cc1` had a % of control of 100%. Moreover, the % of inhibition in assay [4] is -11%. `CC[C@@H]1[C@H](F)C(=O)N[C@@H]1COc1nccc2cc(C(N)=O)c(OC)cc12` [ZIMLOVISERTIB]: the % of inhibition in assay [5] (at 0.01 µM) came to 13.5%; in assay [5] (at 0.04 µM), 5.2%; in assay [5] (at 0.2 µM), 15.3%; in assay [5] (at 1 µM), 30.7%; in assay [5] (at 5 µM), 60.6%. `COCC(=O)NC/C=C/c1ccc2ncnc(Nc3ccc(Oc4ccc(C)nc4)c(C)c3)c2c1` [CP-724714] came in with a % of control in assay [6] of 75%. On to `C=CC(=O)Nc1ccc(C(=O)Nc2[nH]nc3c2CN(C(=O)N[C@H](CN(C)C)c2ccccc2)C3(C)C)cc1`, for which the % of engagement in assay [7] is -51.7%. In the case of `O[C@H]1CC[C@H](Nc2ncc3nc(Nc4c(F)cc(F)cc4F)n([C@H]4CCOC4)c3n2)CC1`, the % of control in assay [8] is 4.6%.
